From US5214191A, “Oxidant sensitive and insensitive aromatic esters as inhibitors of human neutrophil elastase” (Cortech, Inc., priority 1990, dated 1993) come the findings set out here.

≈ marks a conversion by molar mass, not a printed value. Read-outs that look alike come from different tables or passages of the source. Some results are limits rather than exact numbers.

For series [1], the target named is T1, human neutrophil elastase (HNE) (Homo sapiens, UniProt P08246).
T1 sequence (P08246 30-267): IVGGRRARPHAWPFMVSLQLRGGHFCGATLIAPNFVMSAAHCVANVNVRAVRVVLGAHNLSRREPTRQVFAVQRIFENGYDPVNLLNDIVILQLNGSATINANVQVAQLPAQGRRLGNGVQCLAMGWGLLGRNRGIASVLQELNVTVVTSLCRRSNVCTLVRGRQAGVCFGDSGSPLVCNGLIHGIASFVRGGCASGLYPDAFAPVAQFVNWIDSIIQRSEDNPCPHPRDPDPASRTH
Description: Potency (I50 determination) against human neutrophil elastase, N-methoxysuccinyl-ala-ala-pro-val-pNA substrate. In kind it is biochemical. As to conditions: for potency relative to Compound A: in words, versus Compound A (pivaloyl group). Here is the method:
Potency (I50 Determination)
A) 0.075M sodium phosphate, 20% dimethyl sulfoxide (DMSO), pH 7.7=substrateand inhibitor buffer
B) 0.075M sodium phosphate no DMSO, pH 7.7=inhibitor buffer
C) 10 mM human neutrophil elastase (HNE) substrate =N-methoxysuccinyl-ala-ala-pro-val-pNA in DMSO
D) 0.01M sodium acetate, 20% DMSO, pH 5.5=enzyme buffer (dilution)
E) 0.01M sodium acetate, pH 5.5=enzyme buffer (storage)
F) HNE (1 mg) dissolved in 1 mL of reagent E for storage at -20° C.
Make a 10 mM stock of the inhibitor in DMSO. Dilute an aliquot (10 μL) up to 1.0 mL in reagent A (100 μM). Serially dilute 100 μL of the 100 μM stock to 10.0, 1.0, 0.1, 0.01 μM in reagent A. Apply 100 μL of the diluted material to the wells of a 96-well plate. Dilute an aliquot of reagent F 1:150 in reagent D, apply 50 μL aliquots to the indicated wells and incubate for 7 minutes at room temperature.
The HNE substrate solution is made by taking 100 μL of reagent C into 500 μL of reagent A and 400 μL of reagent B. After the 7 minutes of incubation, the substrate (50 μL) is applied to each well. The HNE catalyzed reaction is then monitored spectrophotometrically at 405 nm using an ELISA plate reader machine (UVMAX, Molecular Devices) which processes the raw data with an on-board kinetics program. The enzyme activity is plotted against different inhibitor concentrations and the I50 value is determined by using a curve fitting software program. Once the "screening" I50 has been approximated, a more precise I50 value can be obtained by examination of inhibitor concentrations around this value.

The target in series [2] is porcine pancreatic elastase (PPE) (Sus scrofa, UniProt P00772). Description: Specificity determination, porcine pancreatic elastase, N-succinyl-ala-ala-ala-pNA substrate. As to conditions: ratio of I50's (PPE/HNE). In kind it is biochemical. An excerpt: (§1) Representative compounds according to the invention have been compared with a compound (Compound A) typifying the compounds described in U.S. Pat. […] The comparisons were directed towards potency (represented by the I50 's for human neutrophil elastase (HNE), porcine pancreatic elastase (PPE) and alpha-chymotrypsin (α-CH)), specificity (represented by the ratios of the I50 's (PPE/HNE and α-CH/HNE)) and the ability to inhibit the digestion of extracellular matrix by activated intact human neutrophils (expressed as a fraction of control) of the compounds listed. The following results were obtained (TABLE IV): Specificity Determination Reagents: 1) Porcine Pancreatic Elastase (PPE) 1 mg/mL in 0.01M sodium acetate, pH 5.5. An aliquot of this stock solution is diluted 1:20 in 0.01M sodium acetate, 20% DMSO, 10 mM CaCl2, pH 5.5. 3) PPE substrate: N-succinyl-[…] 20 mM stock in DMSO. Inhibitor, substrate buffer: 0.1M tris-HCl, 0.01M CaCl2, 0.005% triton X-100, 20% DMSO, pH 7.7.

In series [3] the target is alpha-chymotrypsin (α-CH) (Bos taurus, UniProt P00766). Description: Specificity determination, alpha-chymotrypsin, N-succinyl-ala-ala-pro-leu-pNA substrate. In kind it is biochemical. As to conditions: ratio of I50's (α-CH/HNE).
Excerpt: as §1, with “2) α-Chymotrypsin (α-CH)” for “1) Porcine Pancreatic Elastase (PPE)”, “1:85” for “1:20”, “5.5, 0.005% triton X-100 detergent. 4) α-CH” for “5.5. 3) PPE”

Another series in a line: PBS solubility. In kind it is physicochemical. As to conditions: aqueous buffer.
Setting [4] is: Table IV, human neutrophil elastase, read-out: HNE I50.
[5] abbreviates: Table III, series with varied R4, read-out: I50.

porcine pancreatic elastase (PPE), sequence (P00772 27-266): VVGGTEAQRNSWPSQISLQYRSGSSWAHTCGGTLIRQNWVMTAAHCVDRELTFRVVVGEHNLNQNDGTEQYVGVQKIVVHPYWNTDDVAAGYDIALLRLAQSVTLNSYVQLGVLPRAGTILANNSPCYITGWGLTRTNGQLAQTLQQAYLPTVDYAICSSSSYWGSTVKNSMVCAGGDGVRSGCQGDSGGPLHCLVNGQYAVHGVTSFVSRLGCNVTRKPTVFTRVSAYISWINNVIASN

Take `CCC(C(=O)Oc1ccc(S(C)(=O)=O)cc1)c1ccccc1` (stereo not drawn) [Compound 3]: the IC50 in series [1] (setting [4]) was 25 nM. The “potency relative to Compound A” value in series [1] was “improve potency relative to a compound bearing a simple pivaloyl group”. The “PPE (I50)/HNE (I50)” value in series [2] was 129.6. Moreover, the “α-Chymotrypsin (I50)/HNE(I50)” value in series [3] came out at 176.0.
The corresponding values for `CCC(C(=O)Oc1ccc(S(C)(=O)=O)cc1)c1ccc(OC)cc1` (stereo not drawn) [Compound 37, 4-Methylsulfonylphenyl 2-(4'-Methoxyphenyl)butyrate] are 31 nM, “improve potency relative to a compound bearing a simple pivaloyl group”, 38.6 and 106.2.
For `CCC(C(=O)Oc1ccc(S(C)(=O)=O)cc1)c1ccc2cc(OC)ccc2c1` (stereo not drawn) [Compound 384], in series [1] (setting [4]), the IC50 was determined as 55 nM. Besides, the “potency relative to Compound A” value in series [1] is “improve potency relative to a compound bearing a simple pivaloyl group”. Further, the “PPE (I50)/HNE (I50)” value in series [2] amounted to 29.1. In addition, the “α-Chymotrypsin (I50)/HNE(I50)” value in series [3] came out at 131.8.
Consider `CC(C)(C)C(=O)Oc1ccc(S(C)(=O)=O)cc1` [Compound A, reference compound], for which, in series [1] (setting [4]), the IC50 was 129 nM. The “PPE (I50)/HNE (I50)” value in series [2] was determined as 18.84. Besides, the “α-Chymotrypsin (I50)/HNE(I50)” value in series [3] amounted to 146.10.
For `CCC(C(=O)Oc1ccc(S(=O)(=O)CC(C)(C)C(=O)O)cc1)c1ccccc1` (stereo not drawn) [S(O2)CH2 C(CH3)2 CO2 H], the IC50 in series [1] (setting [5]) worked out at 141 nM. Moreover, the solubility in the series “PBS solubility” was at least 2000 µg/mL.
With `CCC(C(=O)Oc1ccc(S(C)(=O)=O)cc1)c1ccccc1` (stereo not drawn) [S(O)2 CH3], the IC50 in series [1] (setting [5]) was found to be 100 nM. The compound also gave a solubility in the series “PBS solubility” of 10 µg/mL (≈ 31.4 µM).
On to `CCC(C(=O)Oc1ccc([S+]([O-])CC(C)(C)C(=O)O)cc1)c1ccccc1` (stereo not drawn) [S(O)CH2 C(CH3)2 CO2 H], for which, in series [1] (setting [5]), the IC50 stood at 357 nM. Moreover, the solubility in “PBS solubility” is at least 2000 µg/mL.
The corresponding values for `CCC(C(=O)Oc1ccc([S+](C)[O-])cc1)c1ccccc1` (stereo not drawn) [S(O)CH3] are 600 nM and 600 µg/mL (≈ 1980 µM).
Regarding `CCC(C(=O)Oc1ccc(SCC(C)(C)C(=O)O)cc1)c1ccccc1` (stereo not drawn) [SCH2 C(CH3)2 CO2 H], in series [1] (setting [5]), the IC50 came to 892 nM. In “PBS solubility”, the solubility is at least 2000 µg/mL.
For `CCC(C(=O)Oc1ccc(SC)cc1)c1ccccc1` (stereo not drawn) [SCH3], the IC50 in series [1] (setting [5]) stood at 9000 nM. The solubility in the series “PBS solubility” amounted to 10 µg/mL (≈ 34.9 µM).

In general, solubility refers to how much of the substance goes into solution per volume. The low end stands for little dissolved substance, the high end for much dissolved substance.
